Experimental data from PubChem BioAssay AID248 (DTP/NCI, 2004).
“And” between values parts separate entries of the source, which are not always exact repeats. Equal entries are not always repeated. Toxic doses and inconclusive results are not listed. Rule as the data show it: active = T/C of 150% or more; inactive = T/C below 125%.

System: L1210 leukemia ip in BDF1 mice, survival T/C
Assay: NCI In Vivo Anticancer Drug Screen. Data for tumor model L1210 Leukemia (intraperitoneal) in B6D2F1 (BDF1) mice
Details: endpoint: mean survival time, higher = longer survival
In short: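 Transplantable tumor model; survival measured in treated vs vehicle control mice. Value = treated/control.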

[1] = dose: 100.0 mg/kg/injection, schedule: Q04DX003 (ip), vehicle: Klucel (hydroxypropylcellulose) (HPC)
[2] = dose: 200.0 mg/kg/injection, schedule: Q04DX003 (ip), vehicle: Klucel (hydroxypropylcellulose) (HPC)
[3] = dose: 400.0 mg/kg/injection, schedule: Q04DX003 (ip), vehicle: Klucel (hydroxypropylcellulose) (HPC)
[4] = dose: 50.0 mg/kg/injection, schedule: Q01DX001 (ip), vehicle: carboxymethylcellulose (CMC)
[5] = dose: 100.0 mg/kg/injection, schedule: Q01DX001 (ip), vehicle: carboxymethylcellulose (CMC)
[6] = dose: 100.0 mg/kg/injection, schedule: Q04DX003 (ip), vehicle: other
[7] = dose: 200.0 mg/kg/injection, schedule: Q04DX003 (ip), vehicle: other
[8] = dose: 100.0 mg/kg/injection, schedule: Q01DX001 (ip), vehicle: saline
[9] = dose: 200.0 mg/kg/injection, schedule: Q01DX001 (ip), vehicle: saline
[10] = dose: 400.0 mg/kg/injection, schedule: Q01DX001 (ip), vehicle: saline
[11] = dose: 100.0 mg/kg/injection, schedule: Q04DX003 (ip), vehicle: saline with Tween-80
[12] = dose: 200.0 mg/kg/injection, schedule: Q04DX003 (ip), vehicle: saline with Tween-80
[13] = dose: 400.0 mg/kg/injection, schedule: Q04DX003 (ip), vehicle: saline with Tween-80
[14] = dose: 100.0 mg/kg/injection, schedule: Q04DX002 (ip), vehicle: Klucel (hydroxypropylcellulose) (HPC)
[15] = dose: 50.0 mg/kg/injection, schedule: Q01DX001 (ip), vehicle: saline
[16] = dose: 100.0 mg/kg/injection, schedule: Q01DX009 (ip), vehicle: saline with Tween-80
[17] = dose: 200.0 mg/kg/injection, schedule: Q01DX009 (ip), vehicle: saline with Tween-80

Measured: T/C

Nc1nc2c(ncn2C2OC(COP(=O)(O)O)C(O)C2O)c(=O)[nH]1 (stereo not given)
inactive: dose: 100.0 mg/kg/injection, schedule: Q01DX005 (ip), vehicle: saline 100 % of control | dose: 100.0 mg/kg/injection, schedule: Q01DX009 (ip), vehicle: saline 101 % of control | dose: 200.0 mg/kg/injection, schedule: Q01DX005 (ip), vehicle: saline 112 % of control | dose: 200.0 mg/kg/injection, schedule: Q01DX009 (ip), vehicle: saline 95 % of control

O=C(Nc1cccc(F)c1)Nc1cc(Cl)ccc1Cl
inactive: dose: 100.0 mg/kg/injection, schedule: Q01DX009 (ip), vehicle: Klucel (hydroxypropylcellulose) (HPC) 96 % of control and 86 % of control | dose: 200.0 mg/kg/injection, schedule: Q01DX009 (ip), vehicle: Klucel (hydroxypropylcellulose) (HPC) 102 % of control | dose: 400.0 mg/kg/injection, schedule: Q01DX009 (ip), vehicle: Klucel (hydroxypropylcellulose) (HPC) 95 % of control and 92 % of control

Cc1cc2c([N+](=O)[O-])c3ccc(N4CCCCC4)nn3c2n[n+]1[O-]
inactive: dose: 31.3 mg/kg/injection, schedule: Q04DX002 (ip), vehicle: Klucel (hydroxypropylcellulose) (HPC) 95 % of control | dose: 62.5 mg/kg/injection, schedule: Q04DX002 (ip), vehicle: Klucel (hydroxypropylcellulose) (HPC) 111 % of control | dose: 125.0 mg/kg/injection, schedule: Q04DX002 (ip), vehicle: Klucel (hydroxypropylcellulose) (HPC) 122 % of control

c1csc([Si](c2cccs2)(c2cccs2)c2cccs2)c1
inactive: dose: 100.0 mg/kg/injection, schedule: Q04DX002 (ip), vehicle: saline with Tween-80 103 % of control | dose: 200.0 mg/kg/injection, schedule: Q04DX002 (ip), vehicle: saline with Tween-80 89 % of control

CS(=O)(=O)c1nnc(-c2ccc(Cl)c(Cl)c2)s1
inactive: dose: 75.0 mg/kg/injection, schedule: Q01DX001 (ip), vehicle: saline 101 % of control | dose: 75.0 mg/kg/injection, schedule: Q04DX003 (ip), vehicle: saline 110 % of control | dose: 150.0 mg/kg/injection, schedule: Q01DX001 (ip), vehicle: saline 100 % of control | dose: 150.0 mg/kg/injection, schedule: Q04DX003 (ip), vehicle: saline 95 % of control | dose: 300.0 mg/kg/injection, schedule: Q01DX001 (ip), vehicle: saline 110 % of control

O=C1CCC(=S)N1c1ccccc1
inactive: [1] 101 % of control | [2] 100 % of control | [3] 95 % of control

C1N2CN3CN1CN(C2)C3
inactive: [4] 104 % of control | [5] 104 % of control | dose: 100.0 mg/kg/injection, schedule: Q04DX002 (ip), vehicle: saline 100 % of control | dose: 200.0 mg/kg/injection, schedule: Q01DX001 (ip), vehicle: carboxymethylcellulose (CMC) 112 % of control | dose: 200.0 mg/kg/injection, schedule: Q04DX002 (ip), vehicle: saline 100 % of control | dose: 400.0 mg/kg/injection, schedule: Q01DX001 (ip), vehicle: carboxymethylcellulose (CMC) 101 % of control | dose: 400.0 mg/kg/injection, schedule: Q04DX002 (ip), vehicle: saline 114 % of control

CC[NH-].CC[NH-].[Br][Pt+2][Br]
inactive: [6] 122 % of control | [7] 105 % of control

O=c1[nH][nH]c(=S)c(=O)[nH]1
inactive: [8] 102 % of control | [9] 98 % of control | [10] 104 % of control

CCOC(=O)/C=C/Sc1ccccc1
inactive: dose: 12.5 mg/kg/injection, schedule: Q04DX002 (ip), vehicle: saline with Tween-80 98 % of control | dose: 25.0 mg/kg/injection, schedule: Q04DX002 (ip), vehicle: saline with Tween-80 98 % of control | dose: 50.0 mg/kg/injection, schedule: Q04DX002 (ip), vehicle: saline with Tween-80 91 % of control

CCCCCCCCCSCC
inactive: [11] 102 % of control | [12] 96 % of control | [13] 102 % of control

CC(C)(C)c1cc(-c2cc(C(C)(C)C)c(O)c(C(C)(C)C)c2)cc(C(C)(C)C)c1O
inactive: [1] 104 % of control | [2] 107 % of control | [3] 98 % of control

COC(=O)c1cc2nc(C(C)C)n(Cc3ccccc3)c2cc1C(=O)OC
inactive: dose: 100.0 mg/kg/injection, schedule: Q01DX001 (ip), vehicle: other 99 % of control | dose: 100.0 mg/kg/injection, schedule: Q01DX009 (ip), vehicle: other 104 % of control and 87 % of control | [14] 105 % of control | dose: 100.0 mg/kg/injection, schedule: Q04DX002 (ip), vehicle: other 102 % of control and 91 % of control | [6] 107 % of control | dose: 200.0 mg/kg/injection, schedule: Q01DX001 (ip), vehicle: other 100 % of control | dose: 200.0 mg/kg/injection, schedule: Q01DX009 (ip), vehicle: other 101 % of control and 90 % of control | dose: 200.0 mg/kg/injection, schedule: Q04DX002 (ip), vehicle: Klucel (hydroxypropylcellulose) (HPC) 98 % of control | dose: 200.0 mg/kg/injection, schedule: Q04DX002 (ip), vehicle: other 95 % of control and 108 % of control | [7] 109 % of control | dose: 400.0 mg/kg/injection, schedule: Q01DX001 (ip), vehicle: other 89 % of control | dose: 400.0 mg/kg/injection, schedule: Q01DX009 (ip), vehicle: other 97 % of control and 106 % of control | dose: 400.0 mg/kg/injection, schedule: Q04DX002 (ip), vehicle: Klucel (hydroxypropylcellulose) (HPC) 102 % of control | dose: 400.0 mg/kg/injection, schedule: Q04DX002 (ip), vehicle: other 95 % of control and 107 % of control | dose: 400.0 mg/kg/injection, schedule: Q04DX003 (ip), vehicle: other 105 % of control

NC(=S)N/N=C\c1cn(Cc2ccccc2)c2ccccc12
inactive: [15] 95 % of control | [8] 101 % of control | [9] 101 % of control | [10] 97 % of control

c1ccc(N=Nc2ccc(NC3=NCCO3)cc2)cc1
inactive: [1] 95 % of control | [2] 98 % of control

NC(CC(=O)O)C(=O)O.[Cu+2] (stereo not given)
inactive: dose: 5.0 mg/kg/injection, schedule: Q01DX009 (ip), vehicle: Klucel (hydroxypropylcellulose) (HPC) 106 % of control | dose: 10.0 mg/kg/injection, schedule: Q01DX009 (ip), vehicle: Klucel (hydroxypropylcellulose) (HPC) 104 % of control | dose: 20.0 mg/kg/injection, schedule: Q01DX009 (ip), vehicle: Klucel (hydroxypropylcellulose) (HPC) 108 % of control | dose: 20.0 mg/kg/injection, schedule: Q04DX003 (ip), vehicle: Klucel (hydroxypropylcellulose) (HPC) 100 % of control

O=C(CSCc1ccccc1)c1ccccc1
inactive: [11] 90 % of control | [12] 90 % of control | [13] 100 % of control

NS(=O)(=O)c1ccc(Cl)c(Cl)c1
inactive: [11] 97 % of control | [12] 103 % of control | [13] 93 % of control

CN(C)c1ccc2nc3c(C(=O)O)cc(=O)c(O)c-3oc2c1
inactive: [4] 104 % of control | [5] 101 % of control

O=[N+]([O-])c1ccc(N/N=C2\CCC3CC23)c([N+](=O)[O-])c1 (stereo not given)
inactive: dose: 25.0 mg/kg/injection, schedule: Q04DX002 (ip), vehicle: Klucel (hydroxypropylcellulose) (HPC) 105 % of control | dose: 50.0 mg/kg/injection, schedule: Q04DX002 (ip), vehicle: Klucel (hydroxypropylcellulose) (HPC) 102 % of control | [14] 97 % of control

C[C@@H](c1ccccc1)[C@@H](C(=O)O)c1ccccc1
inactive: [15] 109 % of control | [8] 94 % of control | [9] 97 % of control | [10] 97 % of control

CCOC(=O)c1c[nH]c(C)c1C
inactive: [1] 104 % of control | [2] 109 % of control | [3] 105 % of control

Nc1nc(NCCCc2ccccc2)c([N+](=O)[O-])c(=O)[nH]1
inactive: [16] 93 % of control | [17] 97 % of control

CCCCCCCCCCCCn1cnc2ncnc(Cl)c21
inactive: dose: 12.5 mg/kg/injection, schedule: Q01DX005 (ip), vehicle: other 102 % of control | dose: 25.0 mg/kg/injection, schedule: Q01DX005 (ip), vehicle: other 98 % of control | dose: 50.0 mg/kg/injection, schedule: Q01DX005 (ip), vehicle: other 98 % of control | dose: 100.0 mg/kg/injection, schedule: Q01DX005 (ip), vehicle: other 96 % of control

CCCC(C)(C)SSC(C)(C)CCC
inactive: [16] 98 % of control | [11] 103 % of control | [17] 96 % of control | [12] 110 % of control | [13] 117 % of control
